# Measurements from PubChem BioAssay AID1645865 (Buhrlage Lab, Dana-Farber Cancer Institute and Novartis …, 2021).
# pIC50: −log10 of the molar value. The source made the active and inactive calls.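 The calls were made as follows: active = maximal inhibition of the USP30 enzyme reaching 30% or more across the dose series; inactive = the rest.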
# Target: Ubiquitin carboxyl-terminal hydrolase 30 (Homo sapiens) (UniProt Q70CQ3)
# Assay: inhibitors of ubiquitin-specific protease 30 deubiquitylating enzyme, concentration dependence, in vitro biochemical, validation of primary hits (AID 1645865)
# Details: purified USP30, Ub-rhodamine cleavage, fluorescence, 2 h
# Chain of Ubiquitin carboxyl-terminal hydrolase 30 (Homo sapiens) (Q70CQ3 whole entry, looked up): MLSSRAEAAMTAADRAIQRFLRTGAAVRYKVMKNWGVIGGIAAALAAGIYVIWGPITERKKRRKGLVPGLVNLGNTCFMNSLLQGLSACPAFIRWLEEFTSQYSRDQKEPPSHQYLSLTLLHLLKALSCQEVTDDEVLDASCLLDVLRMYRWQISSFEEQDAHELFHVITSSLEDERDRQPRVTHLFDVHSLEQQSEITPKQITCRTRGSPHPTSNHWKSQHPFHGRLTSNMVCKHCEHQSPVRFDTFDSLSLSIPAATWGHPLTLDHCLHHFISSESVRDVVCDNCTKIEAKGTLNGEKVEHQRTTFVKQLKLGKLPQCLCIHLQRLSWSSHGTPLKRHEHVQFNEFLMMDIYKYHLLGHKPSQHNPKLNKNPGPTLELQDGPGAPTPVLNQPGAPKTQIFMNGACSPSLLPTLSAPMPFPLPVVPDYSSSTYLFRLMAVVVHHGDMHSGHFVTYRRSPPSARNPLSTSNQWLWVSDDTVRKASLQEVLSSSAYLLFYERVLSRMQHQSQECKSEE
Compound,IC50,pIC50
c1ccc2c(Cc3nc(-c4ccncc4)no3)cccc2c1,> 50 µM (inactive),
CCn1cc(NC(=O)CN2CCC3(CC=CCOC3)CC2)c(C)n1,> 50 µM (inactive),
O=S1(=O)CCN(CC2CCCO2)c2c(Oc3ccccc3)nc(F)c(Cl)c21 (configuration not stated),> 50 µM (inactive),
COc1ccc(CC(=O)NCc2ccc3[nH]c(C)cc3c2)cc1,> 50 µM (inactive),
COc1cc2c(cc1NC(=O)c1ccc(-n3cnnn3)cc1)oc1ccccc12,,6.66
O=C(CC(C(=O)Nc1ccc2c(c1)OCO2)C(=O)c1ccccc1)Nc1ccc(Cl)cc1F (configuration not stated),,5.58
COc1ccc(OC)c(CCNC(=O)CCC2=NS(=O)(=O)c3ccc(C(F)(F)F)cc3N2)c1,,4.63
COc1ccc(C)cc1NC(=O)C(NS(=O)(=O)c1ccc2c(c1)CCN2C(C)=O)C(C)C (configuration not stated),> 50 µM (inactive),
CC1=C[C@@H](C)CC[C@H]2O[C@@H](C3=C(O)C(=O)C(C)=C4O[C@](O)(C=C43)[C@@H](C)C[C@H](C)C1)[C@H](C)[C@@H](O)[C@H]2C,,4.65
CO[C@H]1[C@@H](O)[C@H](C)O[C@H](O[C@H]2[C@H](Oc3cccc4c(O)c5c(=O)oc6ccc(C)c7c(=O)oc(c34)c5c67)O[C@H](C)[C@H](O)[C@@H]2O)[C@@H]1O,> 50 µM (inactive),
CC(OC(=O)c1ccc2c(c1)OCCO2)C(=O)NCC1CCCCC1 (configuration not stated),,4.50
COc1ccc(C(=O)Nc2ccc3c(c2)C(=O)N(C)c2ccccc2O3)cc1,> 50 µM (inactive),
O=C(Nc1ccc(N2CCOCC2)cc1)c1ccc(-c2ccc(N3CCCC3)nn2)cc1,> 50 µM (inactive),
CC(C)c1nc2sc3c(NCc4ccco4)ncnc3c2c2c1CCC2,> 50 µM (inactive),
Cc1cccc(NC(=O)c2nc(N3CCSCC3)c3cnn(C)c3n2)c1,> 50 µM (inactive),
Cc1ccc(Nc2nc(C(=O)NCc3ccc4c(c3)OCO4)cc3occc23)cc1Cl,> 50 µM (inactive),
COc1ccccc1NC(=O)CSC1=NC2(CCCCC2)Nc2ccccc21,> 50 µM (inactive),
N#Cc1ccc(NC(=O)COC(=O)c2ccc3ccccc3n2)cc1,> 50 µM (inactive),
CN1C(=O)[C@@]23C[C@]4([C@@]56C[C@]78SS[C@](CO)(C(=O)N7[C@@H]5Nc5ccccc56)N(C)C8=O)c5ccccc5N[C@@H]4N2C(=O)[C@]1(CO)SS3,,6.57
CC(=O)N1CCc2cc(S(=O)(=O)NC(Cc3ccccc3)C(=O)Nc3cccc(Cl)c3C)ccc21 (configuration not stated),,5.46
COc1cc2c(cc1OC)-c1cc(Nc3ccc(Br)cc3)nc(=O)n1CC2,,6.03
CC(=O)c1ccc(NC(=O)C[n+]2cc(-c3ccc(Cl)cc3)n3c2CCC3)cc1,> 50 µM (inactive),
O=C1CC(c2ccco2)Cc2[nH]c(=O)c(-c3nc(-c4ccc(Cl)cc4)cs3)cc21 (configuration not stated),> 50 µM (inactive),

Compound,IC50,pIC50
Cc1nn(-c2ccc(F)cc2)cc1-c1noc(C(=O)NCc2ccccn2)n1,,4.56
CCOc1ccccc1C(=O)Nc1ccc2c(c1)Sc1ncccc1C(=O)N2C,> 50 µM (inactive),
O=C(COc1cccc(C(=O)NCc2ccccc2)c1)Nc1ccc(Oc2ccccc2)cc1,> 50 µM (inactive),
O=C(Nc1cccc(Cl)c1)N1CCN(c2cc(C(F)(F)F)ccn2)CC1,,5.06
O=C(COc1nc2ccccc2nc1N1CCOCC1)Nc1cccc(S(=O)(=O)N2CCCCC2)c1,> 50 µM (inactive),
COc1cc(OC)cc(-n2c(=O)c3sccc3n(CC(=O)Nc3ccc(C)cc3)c2=O)c1,,5.28
COc1cc(/C=C/C(=O)OCC(=O)Nc2ccc([N+](=O)[O-])cc2OC)ccc1O,,4.55
CC(C)CC(=O)Nc1cc(F)c2nc(N3CCOCC3)ccc2c1,> 50 µM (inactive),
Cc1ccc(NC(=O)Cn2c(-n3nc(C)cc3C)nc3c(c2=O)CCCC3)c(C)c1,,4.59
Cn1cc(CCNC(=O)c2cc3ccccc3[nH]2)c2cccnc21,> 50 µM (inactive),
COc1ccc(NCc2nc3ccccc3n2Cc2ccccc2)cc1,> 50 µM (inactive),
O=C(Nc1ccc2c(c1)OCO2)c1cc(-c2cccnc2)n(-c2ccccc2)n1,> 50 µM (inactive),
COc1ccc(C2SCC(=O)Nc3c2c(=O)[nH]n3C2CCCCCC2)cc1 (configuration not stated),,4.62
COc1cccc(NC(=O)c2ccc3noc(-c4ccc(Cl)cc4)c3c2)c1,,4.49
Cn1c(SCc2ccccc2)nnc1-c1csc(-c2ccccc2)n1,,4.65
O=C(Oc1ccc(-c2cnc3ccccc3n2)cc1)c1ccc(F)cc1,,4.74
O=[N+]([O-])c1cccc(-c2noc(CSc3ccccc3)n2)c1,,4.33
Cc1cc(C#N)c2c(C)ccc(C(C)C)cc1-2,> 50 µM (inactive),
Cc1nn(Cc2ccccc2)c(Cl)c1C(=O)NC1CCCc2ccccc21 (configuration not stated),> 50 µM (inactive),
N[C@@H](Cc1ccccc1)C(=O)N1CCC2(CC1)CN(C(=O)c1ccc(Cl)cc1)CCO2,> 50 µM (inactive),
Cc1cc(C(=O)Nc2ccc3nc(N4CCN(c5ncccn5)CC4)cc(C)c3c2)ccc1[N+](=O)[O-],,5.65
CN(C(=O)c1ccncc1)[C@H]1CC[C@@]2(C)C[C@H](c3ccccc3)C[C@](C)(O2)[C@@H]1O,> 50 µM (inactive),
C=C1Nc2ccccc2C(=O)N1c1cccc(NC(=O)c2ccc(C)c(C)c2)c1,> 50 µM (inactive),

Compound,IC50,pIC50
CSc1ccc(CNCc2c(C(=O)O)n(Cc3ccccc3)c3cc(C)ccc23)cc1,> 50 µM (inactive),
CC(C)N1CC2CN(Cc3ccc(Cl)cc3)CCN2Cc2ccccc21 (configuration not stated),> 50 µM (inactive),
CCC[C@H]1O[C@@H]2CC(=O)O[C@@H]2C2=C1C(=O)c1c(O)cccc1C2=O,> 50 µM (inactive),
CCN(CC)c1nc(F)c2c(c1F)S(=O)(=O)CCN2Cc1cccnc1,> 50 µM (inactive),
O=C(COc1nc2ccccc2nc1N1CCOCC1)NC(c1ccccc1)c1ccccc1,> 50 µM (inactive),
CC1OC1C(=O)[C@]1(O)[C@H](C)[C@@H](O)[C@@]23O[C@@]2([C@H](O)c2c(O)cccc2C3=O)[C@H]1O (some centres not stated),> 50 µM (inactive),
O=[N+]([O-])c1ccc2c(c1)nc1n2CCN(Cc2ccco2)C1,> 50 µM (inactive),
CCOC(=O)c1cc2c(ccn2C)n1CC(=O)N1CCC(C)CC1,> 50 µM (inactive),
COc1ccccc1C(=O)N1CCc2[nH]c3ccc(F)cc3c2C1,> 50 µM (inactive),
Cc1cc(C)c(O)c(-c2cc(C(=O)Nc3ccccc3Cl)[nH]n2)c1,,5.68
CC1(C)Cc2c(c(-c3ccco3)nc3sc4c(SCCCc5ccccc5)ncnc4c23)CO1,> 50 µM (inactive),
COc1ccc(OC)c(NC(=O)C2=C(C)Nc3ncnn3C2c2ccccc2OCc2ccc(C)cc2)c1 (configuration not stated),,4.76
Cn1c(CCN2CCCC2)nc2cc(NC(=O)c3ccccc3)ccc21,> 50 µM (inactive),
COc1ccccc1-c1ccc(CN2[C@@H](c3ccccc3)C[C@@H]3NC(=O)CCC[C@H]32)cc1,> 50 µM (inactive),
Cc1cc(C(=O)COC(=O)c2ccc[nH]c2=O)c(C)n1-c1ccc2c(c1)OCO2,> 50 µM (inactive),
Cc1c(C(=O)Nc2ccc(-c3nnc4n3CCCCC4)cc2)oc2c1ccc1ccccc12,> 50 µM (inactive),
CSc1ccccc1C(=O)Nc1sc2c(c1C(N)=O)CCC(C)C2 (configuration not stated),,5.67
COc1ccc2cc1Oc1cc(ccc1OC)C(O)C13SSC4(C(=O)N1C)C(O)C1=COC=CC(OC2=O)C1N4C3=O (configuration not stated),,6.17
COc1ccc(-c2cc(-c3ccccc3)nc(SCC(N)=O)c2C#N)cc1OC,,5.80
Cc1ccc(OC(=O)c2cn(-c3ccccc3)nc2-c2cccnc2)cc1,> 50 µM (inactive),
CC(=O)Nc1ccc(Cc2nc(-c3ccc4c(c3)nc(C)c(=O)n4C3CCCC3)no2)cc1,> 50 µM (inactive),
COc1ccccc1NC(=O)c1cc(-c2ccccn2)nc2ccccc12,,4.78
CC(C)CCn1c(=O)c2ccccc2n2c(CCC(=O)NC3CCCCCC3)nnc12,> 50 µM (inactive),

Compound,IC50,pIC50
O=C(COc1ccc(Cl)cc1)N1CCc2cc3ccccc3nc21,,5.72
COc1ccc(CCNC(=O)c2cc3ccccc3s2)cc1OC,> 50 µM (inactive),
Nc1ncnc(SCc2ccc(Cl)cc2)n1,,4.77
CNc1nc2c(c(=O)n1C)CN(C(=O)Nc1cccc3ccccc13)CC2,> 50 µM (inactive),
O=S(=O)(Cc1nnc(-c2ccccc2C(F)(F)F)o1)c1ccc(Cl)cc1,> 50 µM (inactive),
CC(C)Cn1cc(OC(=O)c2ccc(F)cc2)c2c1nc(-c1ccc(F)cc1)n1c3ccccc3nc21,> 50 µM (inactive),
COc1ccc(NS(=O)(=O)c2ccc(NC(=O)Nc3ccc(Cl)cc3)cc2)cc1,,4.74
CCCC(=O)c1c[nH]c(C(=O)NCc2ccc(F)cc2)c1,,4.76
O=c1ccc(-c2noc(Cc3cccc(Cl)c3)n2)c[nH]1,> 50 µM (inactive),
O=C(NCc1ccc(F)cc1)c1cc(-n2cnnn2)ccc1Cl,,4.67
CS(=O)(=O)N1CCCc2cc(C(=O)Nc3ccc(Oc4ccccc4)cc3)ccc21,> 50 µM (inactive),
N#Cc1ccc(Cn2nnc(-c3cccc(Cl)c3)n2)cc1,> 50 µM (inactive),
Nc1ccc(F)c(NS(=O)(=O)c2ccccc2)c1,> 50 µM (inactive),
O=C(OCc1ccc(Br)cc1)c1ccc2ccccc2n1,> 50 µM (inactive),
COc1ccc(Cn2c(=O)[nH]c3cc(C(=O)NCCCN4CCN(c5cccc(Cl)c5)CC4)ccc3c2=O)cc1,,5.72
CCn1c(SCC(=O)c2c(N)n(CC(C)C)c(=O)n(C)c2=O)nnc1-c1ccccc1,,5.01
CN(C)C1CCN(C(=O)c2cc(-c3ccn(-c4ccccc4)n3)n3ccccc23)CC1,> 50 µM (inactive),
COc1ccccc1NC(=O)Cn1cc(C(=O)c2ccc(C)cc2)c(=O)c2cc(Cl)ccc21,,5.41
COc1cc(-c2ccno2)ccc1S(=O)(=O)Nc1ccccc1Cl,> 50 µM (inactive),
COc1cc2c(=O)n(CCC(=O)NCc3ccco3)c(=O)n(CC(=O)Nc3c(C)cccc3C)c2cc1OC,> 50 µM (inactive),
CN(C)Cc1ccc(C(=O)Nc2ccc(-c3nccs3)cc2)cc1,> 50 µM (inactive),
O=C1C[C@@H]2O[C@H](CNC(=O)[C@@H]3CN(CCN3C(=O)C3CCOCC3)C(=O)[C@@H]3C[C@@H](CN3Cc3ccc(F)c(F)c3)N1)[C@@H](O)[C@H]2O,> 50 µM (inactive),
CC(=O)c1oc2nc3c(c(-c4ccc(Cl)cc4)c2c1N)CCc1ccccc1-3,> 50 µM (inactive),
